{"source": "paper PMC4585333", "about": "“Novel Regulator of Acylated Ghrelin, CF801, Reduces Weight Gain, Rebound Feeding after a Fast, and Adiposity in Mice” (Frontiers in Endocrinology, 2015)", "key": {"[1]": {"test_system": "stomach-derived ghrelinoma (SG-1) cells", "test": "Cell-based ghrelin secretion assay (acyl ghrelin in medium, ELISA)", "protocol": "Ghrelin secretion studies were performed in stomach-derived ghrelinoma (SG-1) cells, cultured as described previously ([61], [62]). Cells were plated at a density of 5 × 10^4 cells/mL/well on to 24-well plates pre-coated with poly-D-lysine (day 0). On day 2, the cells were treated with the indicated concentrations of test compound CF801, 24 h ahead of the test period and with 50 μM sodium octanoate–bovine serum albumin (BSA), 16 h ahead of the test period. On day 3, the medium was aspirated and the cells were treated with the same concentrations of CF801 in 500 μL serum-free DMEM (Life Technologies, Grand Island, NY, USA) supplemented with 5 mM glucose and 50 μM sodium octanoate–BSA. After a 6-h incubation, the medium was collected, placed on ice, and immediately centrifuged at 800 × g for 5 min. Hydrochloric acid was added to the supernatant to achieve a final concentration of 0.1 N (for stabilization of acyl ghrelin) and stored at −80°C until analysis. Assay for acyl ghrelin and total were performed using commercial ELISA kits (EMD Millipore Corporation, Billerica, MA, USA) according to the manufacturer’s instructions and read in a PowerWave XS Microplate spectrophotometer (BioTek Instruments, Inc., Winooski, VT, USA).\nSG-1 cells are derived from stomach ghrelinomas induced by expression of the SV40 large T-antigen under the preproghrelin promoter. These cells retain many of the features of ghrelin cells within primary cultures of gastric mucosal cells from mice ([61]). They also show elevated expression of both preproghrelin and GOAT mRNA with high levels of acylated ghrelin synthesis and secretion ([61]). In order to test CF801’s ability to reduce acyl ghrelin secretion, we performed an in vitro cell-based assay using an SG-1 cell line as previously described ([61], [62]).\nFigure 1 CF801 inhibits acyl ghrelin secretion from SG-1 cells following 24 h of incubation. […] All values are expressed as mean ± SEM. *p < 0.05, ***p < 0.001 significant difference in acyl ghrelin concentrations with CF801 treatment when compared to untreated control (n = 6 wells)."}, "human GOAT (hGOAT)": {"molecular_target": "T1, human GOAT (hGOAT) (Homo sapiens, UniProt Q96T53)", "T1 construct": "made in house; host or cells: Sf9 insect cells (membrane fraction)", "T1 sequence (Q96T53 1-435)": "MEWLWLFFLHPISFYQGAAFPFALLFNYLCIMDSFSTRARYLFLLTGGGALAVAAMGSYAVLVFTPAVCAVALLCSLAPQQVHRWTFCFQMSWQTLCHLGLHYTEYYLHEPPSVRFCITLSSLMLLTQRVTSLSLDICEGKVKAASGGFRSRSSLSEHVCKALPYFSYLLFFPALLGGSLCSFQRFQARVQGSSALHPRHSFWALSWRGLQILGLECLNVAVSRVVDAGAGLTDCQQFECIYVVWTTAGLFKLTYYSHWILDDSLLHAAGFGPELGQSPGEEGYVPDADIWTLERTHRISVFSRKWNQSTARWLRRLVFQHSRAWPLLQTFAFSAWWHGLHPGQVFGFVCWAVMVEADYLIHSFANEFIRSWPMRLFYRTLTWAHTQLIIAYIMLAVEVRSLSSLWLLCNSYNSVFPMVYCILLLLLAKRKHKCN", "test": "Fluorescence-based GOAT activity assay, human GOAT", "type": "biochemical", "settings": "concentrations up to 10 μM; Sf9 membranes, 1.5 μM GSSFLCAcDan, 500 μM octanoyl-CoA, 30 min pre-incubation, 1 h room temperature, pH 7.0, HPLC fluorescence, triplicate; F(3,8) = 1.251, p > 0.05", "from_the_text": "The effects of CF801 on GOAT activity were examined using a previously validated fluorescence-based assay, and in comparison with octanoyl-(Dap3)-ghrelin (1–5)–NH2, a well characterized GOAT inhibitor ([56], [63]). In this assay, membrane fractions from Sf9 insect cells were transfected to express either human (hGOAT) or mouse GOAT (mGOAT). Membranes fractions were thawed on ice and passed through an 18-gage needle 10 times enriched using a previously described method ([63]). […] Assays were analyzed by reverse phase HPLC with fluorescence detection. […] The trials were run in triplicate, with the % activity calculated as the integrated fluorescence intensity of the octanoylated product in the CF801 or octanoyl-(Dap3)-ghrelin (1–5)–NH2 run normalized by the same quantity for the vehicle-only reaction. […]\nFigure 3 Percent activity of human GOAT (A) and mouse GOAT (B) (obtained from membrane fractions from Sf9 cells expressing hGOAT and mGOAT, resepectively) when exposed to CF801 and octanoyl-(Dap3)-ghrelin (1–5)–NH2 using a fluorescence-based microsomal assay. GSSFLCAcDan was used as an acylation target with fluorescence measured by reverse phase HPLC with fluorescence detection. […] All values are expressed as mean ± SEM. ***p < 0.001 compared to vehicle control."}}, "note": "Entries after “also recorded” stand apart in the source; their conditions may differ.", "data": [{"sequence": "GSAFLSPEHQRK KRRQRRR-NH2 [CF801]", "values": [{"measurement": "acyl ghrelin secretion, 100 μM", "setting": "[1]; 100 μM CF801, 24 h incubation, vs untreated control, n = 6 wells, p < 0.05", "result": "Significant decreases in secretion; also recorded: significant reductions in acyl ghrelin secretion"}, {"measurement": "acyl ghrelin secretion, 300 μM", "setting": "[1]; 300 μM CF801, 24 h incubation, vs untreated control, n = 6 wells, p < 0.05", "result": "Significant decreases in secretion; also recorded: significant reductions in acyl ghrelin secretion"}, {"measurement": "acyl ghrelin secretion, 6-h incubation", "setting": "[1]; 6 h incubation, p > 0.05, preliminary, data not shown, even at highest concentration of 300 μM", "result": "No significant effects; also recorded: no effect on acyl ghrelin secretion"}, {"measurement": "hGOAT activity with CF801", "setting": "human GOAT (hGOAT)", "result": "no inhibition was seen; also recorded: no effect"}]}]}
